Assay results reported in PubChem BioAssay (NCI).
Where “and” joins values, the source holds several entries; their conditions need not be identical. Equal values may be shown once.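 Where inhibition never reached the appropriate level, the endpoint shown equals the highest concentration tested. Otherwise, values were interpolated linearly from a five-concentration, 48-hour dose response in 96-well plates. The concentration for 50% growth inhibition is given as GI50. TGI: total growth inhibition.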

Experiments:
Test in all cases: NCI tumour cell line growth inhibition, 48 h
P388 leukemia = test system: P388 leukemia
K-562 leukemia = test system: K-562 leukemia
A498 renal = test system: A498 renal
CAKI-1 renal = test system: CAKI-1 renal
KM12 colon = test system: KM12 colon
NCI/ADR-RES ovarian = test system: NCI/ADR-RES ovarian
UO-31 renal = test system: UO-31 renal
SNB-19 CNS = test system: SNB-19 CNS
PC-3 prostate = test system: PC-3 prostate
RPMI-8226 leukemia = test system: RPMI-8226 leukemia
MDA-N = test system: MDA-N
EKVX NSCLC = test system: EKVX NSCLC
HS 578T breast = test system: HS 578T breast
A549 NSCLC = test system: A549 NSCLC
M14 melanoma = test system: M14 melanoma
SK-MEL-5 melanoma = test system: SK-MEL-5 melanoma
ACHN renal = test system: ACHN renal
BT-549 breast = test system: BT-549 breast
SNB-78 CNS = test system: SNB-78 CNS
SF-295 CNS = test system: SF-295 CNS
OVCAR-5 ovarian = test system: OVCAR-5 ovarian
M19-MEL melanoma = test system: M19-MEL melanoma
OVCAR-8 ovarian = test system: OVCAR-8 ovarian
OVCAR-4 ovarian = test system: OVCAR-4 ovarian
SW-620 colon = test system: SW-620 colon
HCT-116 colon = test system: HCT-116 colon

In the case of `CCOC(=O)C(CC(C)C)NC(=O)C(Cc1ccc(N(CCCl)CCCl)cc1)NC(C)=O` (stereo not drawn), the TGI (P388 leukemia) is reported as 10.6 µM, the GI50 (K-562 leukemia) is reported as 11.6 µM and the TGI (K-562 leukemia) is reported as 49.7 µM and 54.6 µM. For the same molecule, the GI50 (A498 renal) was 18.4 µM, the TGI (A498 renal) was 37 µM and 48.4 µM and the GI50 (CAKI-1 renal) was 3.71 µM. The TGI (CAKI-1 renal) was 16.2 µM and 6.73 µM, the GI50 (KM12 colon) was 17.8 µM and the TGI (KM12 colon) was 37.5 µM and 44.7 µM. For the same molecule, the TGI (NCI/ADR-RES ovarian) was 68.5 µM, the GI50 (UO-31 renal) was 13.2 µM and the TGI (UO-31 renal) was 73 µM and 20.4 µM. For the same molecule, the GI50 (SNB-19 CNS) was 19.7 µM, the TGI (SNB-19 CNS) was 81.8 µM and 42.7 µM and the TGI (PC-3 prostate) was 57.8 µM. For the same molecule, the GI50 (RPMI-8226 leukemia) was 3.19 µM, the TGI (RPMI-8226 leukemia) was 14.8 µM and 15 µM and the TGI (MDA-N) was 6.91 µM. The GI50 (EKVX NSCLC) was 19.7 µM, the TGI (EKVX NSCLC) was 35.7 µM and 27.7 µM and the TGI (HS 578T breast) was 20.2 µM. For the same molecule, the TGI (A549 NSCLC) was > 100 µM and 77.5 µM, the GI50 (M14 melanoma) was 4.13 µM and the TGI (M14 melanoma) was 15.8 µM and 8.08 µM. For the same molecule, the GI50 (SK-MEL-5 melanoma) was 10.6 µM, the TGI (SK-MEL-5 melanoma) was 23.5 µM and 10.7 µM and the GI50 (ACHN renal) was 3.7 µM. For the same molecule, the TGI (ACHN renal) was 16 µM and 9.63 µM, the TGI (BT-549 breast) was 32.3 µM and the TGI (SNB-78 CNS) was 16.6 µM and 17.8 µM. For the same molecule, the GI50 (SF-295 CNS) was 7.89 µM, the TGI (SF-295 CNS) was 26.8 µM and 26.3 µM and the TGI (OVCAR-5 ovarian) was 32 µM and 33.5 µM. For the same molecule, the GI50 (M19-MEL melanoma) was 6.3 µM, the TGI (M19-MEL melanoma) was 19.3 µM and 15.9 µM and the GI50 (OVCAR-8 ovarian) was 12.1 µM. The TGI (OVCAR-8 ovarian) was 30.8 µM and 55.2 µM, the GI50 (OVCAR-4 ovarian) was 16.1 µM and the TGI (OVCAR-4 ovarian) was 29.5 µM and 27.1 µM. For the same molecule, the GI50 (SW-620 colon) was 11.3 µM, the TGI (SW-620 colon) was 28.7 µM and 33.4 µM and the GI50 (HCT-116 colon) was 12.7 µM. For the same molecule, the TGI (HCT-116 colon) was 29.3 µM and 39.8 µM.
